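Growth conditions: 96-well plates. Treatment: test compound, 48 hours, 5 concentrations. Analysis: linear interpolation between bracketing concentrations; unreached endpoints set to highest concentration. At the GI50, growth is halved.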 Calls of active or inactive are those of the source. Cut-off read from the data, not from the text of the source: active = GI50 up to about 1.1 µM and inactive = higher.
Tests used:
Test in all cases: growth of human tumour cells (NCI), 48 h
[1] = system: COLO 205
[2] = system: EKVX
[3] = system: HOP-92
[4] = system: MCF7
[5] = system: MDA-MB-231
[6] = system: MDA-MB-435
[7] = system: MDA-N
[8] = system: MOLT-4
[9] = system: NCI-H23
[10] = system: OVCAR-3
[11] = system: SF-295
[12] = system: SK-MEL-2
[13] = system: SK-MEL-5
[14] = system: SN12C
[15] = system: SNB-19
[16] = system: SR
[17] = system: SW-620
[18] = system: UACC-62
[19] = system: CCRF-CEM
[20] = system: SK-OV-3

Compound: N[C@H]1CCN(c2c(F)cc3c(=O)c(C(=O)O)cn4c3c2Oc2c-4ccc3c2ccc2ccccc23)C1
- GI50 [1]: 1.13 µM (inactive)
- GI50 [2]: 0.377 µM (active)
- GI50 [3]: 2.46 µM (inactive)
- GI50 [4]: 0.817 µM (active)
- GI50 [5]: 4.91 µM (inactive)
- GI50 [6]: 1.05 µM (active)
- GI50 [7]: 0.767 µM (active)
- GI50 [8]: 0.0643 µM (active)
- GI50 [9]: 1.22 µM (inactive)
- GI50 [10]: 13.1 µM (inactive)
- GI50 [11]: 1.48 µM (inactive)
- GI50 [12]: 9.77 µM (inactive)
- GI50 [13]: 0.776 µM (active)
- GI50 [14]: 0.774 µM (active)
- GI50 [15]: 1.33 µM (inactive)
- GI50 [16]: 0.0532 µM (active)
- GI50 [17]: 0.276 µM (active)
- GI50 [18]: 5.68 µM (inactive)

Compound: Cc1nnc(N2C(=O)C(=Cc3ccc(Cl)cc3)N=C2c2ccc(Cl)cc2)nc1/C=C\c1ccc(N(C)C)cc1
- GI50 [19]: > 100 µM (inactive)
- GI50 [1]: > 100 µM (inactive)
- GI50 [2]: > 100 µM (inactive)
- GI50 [3]: > 100 µM (inactive)
- GI50 [4]: > 100 µM (inactive)
- GI50 [5]: > 100 µM (inactive)
- GI50 [6]: > 100 µM (inactive)
- GI50 [7]: 73.1 µM (inactive)
- GI50 [8]: > 100 µM (inactive)
- GI50 [9]: > 100 µM (inactive)
- GI50 [10]: > 100 µM (inactive)
- GI50 [11]: > 100 µM (inactive)
- GI50 [12]: > 100 µM (inactive)
- GI50 [13]: > 100 µM (inactive)
- GI50 [20]: > 100 µM (inactive)
- GI50 [14]: > 100 µM (inactive)
- GI50 [15]: > 100 µM (inactive)
- GI50 [17]: > 100 µM (inactive)
- GI50 [18]: > 100 µM (inactive)

Compound: O=C(c1cc2ccccc2[nH]1)N1C2CCC1CN(CCOC(c1ccc(F)cc1)c1ccc(F)cc1)CC2 (centres undefined)
- GI50 [19]: 6.01 µM (inactive)
- GI50 [1]: 5 µM (inactive)
- GI50 [2]: 8.55 µM (inactive)
- GI50 [3]: > 100 µM (inactive)
- GI50 [4]: 7.06 µM (inactive)
- GI50 [5]: 9.2 µM (inactive)
- GI50 [6]: > 100 µM (inactive)
- GI50 [7]: > 100 µM (inactive)
- GI50 [8]: 4.91 µM (inactive)
- GI50 [9]: 40.1 µM (inactive)
- GI50 [10]: 9.02 µM (inactive)
- GI50 [11]: 9.89 µM (inactive)
- GI50 [12]: 81.8 µM (inactive)
- GI50 [13]: 5.77 µM (inactive)
- GI50 [20]: > 100 µM (inactive)
- GI50 [14]: 18.2 µM (inactive)
- GI50 [15]: > 100 µM (inactive)
- GI50 [17]: > 100 µM (inactive)
- GI50 [18]: 52 µM (inactive)

Compound: CC(C)N/C(=N\C#N)NS(=O)(=O)c1cnccc1NC1CCCCCCC1
- GI50 [19]: > 100 µM (inactive)
- GI50 [1]: > 100 µM (inactive)
- GI50 [2]: > 100 µM (inactive)
- GI50 [4]: > 100 µM (inactive)
- GI50 [5]: > 100 µM (inactive)
- GI50 [6]: > 100 µM (inactive)
- GI50 [7]: > 100 µM (inactive)
- GI50 [8]: > 100 µM (inactive)
- GI50 [9]: > 100 µM (inactive)
- GI50 [10]: > 100 µM (inactive)
- GI50 [11]: > 100 µM (inactive)
- GI50 [12]: > 100 µM (inactive)
- GI50 [13]: > 100 µM (inactive)
- GI50 [20]: > 100 µM (inactive)
- GI50 [14]: > 100 µM (inactive)
- GI50 [15]: > 100 µM (inactive)
- GI50 [16]: > 100 µM (inactive)
- GI50 [17]: > 100 µM (inactive)
- GI50 [18]: > 100 µM (inactive)

Compound: COC(=O)NN(C(=O)OC)c1c(-c2ccccc2)nc(SC)n1N
- GI50 [19]: > 100 µM (inactive)
- GI50 [1]: > 100 µM (inactive)
- GI50 [2]: > 100 µM (inactive)
- GI50 [4]: > 100 µM (inactive)
- GI50 [5]: > 100 µM (inactive)
- GI50 [6]: > 100 µM (inactive)
- GI50 [7]: > 100 µM (inactive)
- GI50 [8]: > 100 µM (inactive)
- GI50 [9]: > 100 µM (inactive)
- GI50 [10]: > 100 µM (inactive)
- GI50 [11]: > 100 µM (inactive)
- GI50 [12]: > 100 µM (inactive)
- GI50 [13]: > 100 µM (inactive)
- GI50 [14]: > 100 µM (inactive)
- GI50 [15]: > 100 µM (inactive)
- GI50 [16]: > 100 µM (inactive)
- GI50 [17]: > 100 µM (inactive)
- GI50 [18]: > 100 µM (inactive)

Compound: Nc1c(C(=O)c2ccc(Cl)cc2)[nH]c(NCc2ccccc2)c1C(=S)Nc1ccccc1
- GI50 [19]: 2.44 µM (inactive)
- GI50 [1]: 11.5 µM (inactive)
- GI50 [2]: 7.21 µM (inactive)
- GI50 [3]: 2.84 µM (inactive)
- GI50 [4]: 1.58 µM (inactive)
- GI50 [5]: 1.9 µM (inactive)
- GI50 [6]: 1.74 µM (inactive)
- GI50 [7]: 1.73 µM (inactive)
- GI50 [8]: 2.58 µM (inactive)
- GI50 [9]: 2.39 µM (inactive)
- GI50 [10]: 6.65 µM (inactive)
- GI50 [11]: 1.83 µM (inactive)
- GI50 [12]: 1.91 µM (inactive)
- GI50 [20]: 20.1 µM (inactive)
- GI50 [14]: 4.89 µM (inactive)
- GI50 [15]: 4.07 µM (inactive)
- GI50 [17]: 1.88 µM (inactive)
- GI50 [18]: 8.15 µM (inactive)

Compound: CSCCCN(CCCSC)CCCSC
- GI50 [19]: 35.5 µM (inactive)
- GI50 [1]: > 100 µM (inactive)
- GI50 [2]: > 100 µM (inactive)
- GI50 [4]: > 100 µM (inactive)
- GI50 [5]: > 100 µM (inactive)
- GI50 [6]: 55.6 µM (inactive)
- GI50 [7]: > 100 µM (inactive)
- GI50 [8]: 24.2 µM (inactive)
- GI50 [9]: > 100 µM (inactive)
- GI50 [10]: > 100 µM (inactive)
- GI50 [11]: > 100 µM (inactive)
- GI50 [13]: > 100 µM (inactive)
- GI50 [20]: > 100 µM (inactive)
- GI50 [14]: > 100 µM (inactive)
- GI50 [15]: > 100 µM (inactive)
- GI50 [16]: 10.6 µM (inactive)
- GI50 [17]: > 100 µM (inactive)
- GI50 [18]: 97.5 µM (inactive)

— ChEMBL document CHEMBL1201862, “PubChem BioAssay data set” (2004)
